# Measured values from article PMC3206815, “An Essential Farnesylated Kinesin in Trypanosoma brucei” (PLoS ONE, 2011).
# Biological target: T1, Kinesin^CaaX (Trypanosoma brucei, UniProt Q388Z9)
# T1 construct: gene Tb10.389.1270; truncated N-terminal 340-residue motor domain plus coil (full length 832 residues), N-terminal 6xHis, E. coli BL21 soluble lysate, about 44 kDa
# T1 sequence (Q388Z9 1-340): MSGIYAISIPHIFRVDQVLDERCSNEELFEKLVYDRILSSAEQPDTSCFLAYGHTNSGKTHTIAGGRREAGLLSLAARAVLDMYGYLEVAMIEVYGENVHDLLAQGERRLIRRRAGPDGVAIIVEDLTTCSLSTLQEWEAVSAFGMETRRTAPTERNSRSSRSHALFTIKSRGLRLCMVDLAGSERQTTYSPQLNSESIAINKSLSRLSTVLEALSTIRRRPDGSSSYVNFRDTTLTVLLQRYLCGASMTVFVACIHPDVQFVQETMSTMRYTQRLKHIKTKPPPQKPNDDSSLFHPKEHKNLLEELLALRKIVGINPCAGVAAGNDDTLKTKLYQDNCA
# Test: microtubule gliding motility assay
# Format: biochemical
# Settings: 1 mM MgATP, BRB80 pH 6.9, taxol-stabilised bovine microtubules; E. coli lysate with recombinant motor domain
compound,measurement,value
Nc1ncnc2c1ncn2[C@@H]1O[C@H](COP(=O)(O)OP(=O)(O)OP(=O)(O)O)[C@@H](O)[C@H]1O [ATP],microtubule gliding motility assay,both ATP and the Kinesin^CaaX motor domain were required to move microtubules
